Measurements taken from publication PMC3265452 (PLoS Neglected Tropical Diseases, 2012).
Counter-ions that a name gives are not always drawn.

target: AaDOP2 (Aedes aegypti, UniProt H6D5H2); assay: AaDOP2 antagonist screen of the LOPAC1280 library (HEK-CRELuc-Aadop2 cells, luminescence); assay type: cell-based; conditions: not given
Sequence (H6D5H2 1-476): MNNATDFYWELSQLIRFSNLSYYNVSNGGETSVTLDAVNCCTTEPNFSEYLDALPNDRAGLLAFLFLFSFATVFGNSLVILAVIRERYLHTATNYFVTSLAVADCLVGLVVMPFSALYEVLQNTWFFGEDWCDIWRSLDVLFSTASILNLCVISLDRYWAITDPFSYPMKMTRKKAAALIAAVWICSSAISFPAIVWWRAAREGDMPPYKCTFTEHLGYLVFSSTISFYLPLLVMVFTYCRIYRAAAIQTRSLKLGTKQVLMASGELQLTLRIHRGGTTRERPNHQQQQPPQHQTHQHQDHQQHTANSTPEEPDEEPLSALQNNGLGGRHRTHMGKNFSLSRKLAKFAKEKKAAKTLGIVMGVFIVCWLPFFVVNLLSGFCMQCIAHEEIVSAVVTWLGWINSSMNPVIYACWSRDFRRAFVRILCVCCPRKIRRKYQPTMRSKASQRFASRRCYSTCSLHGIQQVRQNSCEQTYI

Structure (SMILES) | Compound effect (percent receptor signaling in presence of test compound, relative lux units relative to the SCH23390 control) | % of the SCH23390 effect (percent inhibition of receptor response relative to the SCH23390 control) [%]
NC(N)=NOCC[C@H](N)C(=O)O.O=S(=O)(O)O [Compound 320, L-Canavanine sulfate] | 92 | 
NS(=O)(=O)c1cc2c(cc1Cl)NC(C1CC3C=CC1C3)NS2(=O)=O (stereo not drawn) [Compound 321, Cyclothiazide] | 93 | 
OC[C@H]1O[C@@H](n2cnc3c(NC4CCCCC4)ncnc32)[C@H](O)[C@@H]1O [Compound 322, N6-Cyclohexyladenosine] | 100 | 
CC[C@@]1(O)C(=O)OCc2c1cc1n(c2=O)Cc2cc3ccccc3nc2-1 [Compound 323, (S)-(+)-Camptothecin] | 7 | 93
CCN(CC)C(C)C(=O)N1c2ccccc2Sc2ccccc21.Cl (stereo not drawn) [Compound 324, 10-(alpha-Diethylaminopropionyl)-phenothiazine hydrochloride] | 56 | 
CCCn1c(=O)c2[nH]c(C3CCCC3)nc2n(CCC)c1=O [Compound 327, 8-Cyclopentyl-1,3-dipropylxanthine] | 111 | 
Cn1c(=O)c2[nH]c(C3CCCC3)nc2n(C)c1=O [Compound 328, 8-Cyclopentyl-1,3-dimethylxanthine] | 93 | 
Cl.NCC(O)C1CCCCCCC1 (stereo not drawn) [Compound 331, 2-Cyclooctyl-2-hydroxyethylamine hydrochloride] | 95 | 
NCCc1c[nH]c2ccc(C(N)=O)cc12.O=C(O)/C=C\C(=O)O [Compound 332, 5-Carboxamidotryptamine maleate] | 119 | 
O=C(O)c1cc(O)c2ccc(Cl)cc2n1 [Compound 333, 7-Chlorokynurenic acid] | 79 | 
CCNC(=O)[C@H]1O[C@@H](n2cnc3c(N)nc(NCCc4ccc(CCC(=O)O)cc4)nc32)[C@H](O)[C@@H]1O.Cl [Compound 337, CGS-21680 hydrochloride] | 112 | 
OC[C@H]1O[C@@H](n2cnc3c(NC4CCCC4)nc(Cl)nc32)[C@H](O)[C@@H]1O [Compound 338, 2-Chloro-N6-cyclopentyladenosine] | 92 | 
Cl.N=C(N)NC(=N)Nc1cccc(Cl)c1 [Compound 339, 1-(m-Chlorophenyl)-biguanide hydrochloride] | 83 | 
Nc1nc(Cl)nc2c1ncn2[C@@H]1O[C@H](COP(=O)([O-])OP(=O)([O-])OP(=O)([O-])[O-])[C@@H](O)[C@H]1O.[Na+].[Na+].[Na+].[Na+] [Compound 340, 2-Chloroadenosine triphosphate tetrasodium] | 102 | 
Oc1cc2c(cc1O)CN(C(=S)NCCc1ccc(Cl)cc1)CCC2 [Compound 342, Capsazepine] | 69 | 
CN1C(=O)CCS(=O)(=O)C1c1ccc(Cl)cc1 (stereo not drawn) [Compound 343, Chlormezanone] | 93 | 
Cn1c(=O)c2c(nc(C=Cc3cccc(Cl)c3)n2C)n(C)c1=O [Compound 344, 8-(3-Chlorostyryl)caffeine] | 91 | 
Nc1nc2ccc(Cl)cc2c2nc(-c3ccco3)nn12 [Compound 345, CGS-15943] | 117 | 
O=C[C@H](Cl)[C@@H](O)[C@H](O)[C@H](O)CO [Compound 346, 2-Chloro-2-deoxy-D-glucose] | 114 | 
CN1C2CCC1CC(OC(c1ccccc1)c1ccc(Cl)cc1)C2.Cl (stereo not drawn) [Compound 347, 4'-Chloro-3-alpha-(diphenylmethoxy)tropane hydrochloride] | 15 | 85

Structure (SMILES) | Compound effect (percent receptor signaling in presence of test compound, relative lux units relative to the SCH23390 control) | % of the SCH23390 effect (percent inhibition of receptor response relative to the SCH23390 control) [%]
c1ccc(C2CC2)c(OCC2=NCCN2)c1 [Compound 348, Cirazoline hydrochloride] | 74 | 
N[C@H](C(=O)O)[C@H]1C[C@@H]1C(=O)O [Compound 350, (2S,1'S,2'S)-2-(carboxycyclopropyl)glycine] | 97 | 
O=C(c1ccc2c(c1)OCCO2)N1CCCCC1 [Compound 352, CX 546] | 97 | 
CNC(=O)[C@H]1O[C@@H](n2cnc3c(NCc4cccc(I)c4)nc(Cl)nc32)[C@H](O)[C@@H]1O [Compound 353, Chloro-IB-MECA] | 120 | 
O=[N+]([O-])c1cc2nc(O)c(O)nc2cc1[N+](=O)[O-] [Compound 355, DNQX] | 100 | 
C[C@@H]1O[C@@H](O[C@H]2C[C@@H](O)[C@]3(CO)[C@H]4[C@H](O)C[C@]5(C)[C@@H]([C@@H]6COC(=O)C6)CC[C@]5(O)[C@@H]4CC[C@]3(O)C2)[C@H](O)[C@H](O)[C@H]1O [Compound 356, Dihydroouabain] | 56 | 
CC(CCc1ccc(O)cc1)NCCc1ccc(O)c(O)c1 (stereo not drawn) [Compound 357, Dobutamine hydrochloride] | 98 | 
CC(C)[C@H]1CN[C@H](C(=O)O)[C@H]1CC(=O)O [Compound 358, Dihydrokainic acid] | 94 | 
C[N+](C)(C)CCCCCCCCCC[N+](C)(C)C.[Br-].[Br-] [Compound 359, Decamethonium dibromide] | 98 | 
Nc1ncnc2c1ncn2[C@@H]1O[C@H](COP(=O)(O)OP(=O)(O)OP(=O)(O)OP(=O)(O)OC[C@H]2O[C@@H](n3cnc4c(N)ncnc43)[C@H](O)[C@@H]2O)[C@@H](O)[C@H]1O [Compound 360, P1,P4-Di(adenosine-5')tetraphosphate triammonium] | 75 | 
N=C(N)N1CCc2ccccc2C1 [Compound 361, Debrisoquin sulfate] | 86 | 
Cc1cn([C@H]2C=C[C@@H](CO)O2)c(=O)[nH]c1=O [Compound 362, 2',3'-didehydro-3'-deoxythymidine] | 99 | 
O=C(CCCN1CC=C(n2c(=O)[nH]c3ccccc32)CC1)c1ccc(F)cc1 [Compound 363, Droperidol] | 58 | 
COC(=O)[C@@H](N)Cc1ccc(O)c(O)c1.Cl [Compound 364, L-3,4-Dihydroxyphenylalanine methyl ester hydrochloride] | 90 | 
OC[C@H]1NC[C@@H](O)[C@@H]1O [Compound 365, 1,4-Dideoxy-1,4-imino-D-arabinitol] | 103 | 
O=[N+]([O-])c1ccc(O[C@@H]2O[C@H](CO)[C@@H](O)[C@H](O)[C@H]2F)c([N+](=O)[O-])c1 [Compound 366, 2,4-Dinitrophenyl 2-fluoro-2-deoxy-beta-D-glucopyranoside] | 75 | 
COc1ccc([C@@H]2Sc3ccccc3N(CCN(C)C)C(=O)[C@@H]2OC(C)=O)cc1 [Compound 369, Diltiazem hydrochloride] | 107 | 
Br.COc1ccc2c(c1)[C@]13CCCC[C@@H]1[C@H](C2)N(C)CC3.O [Compound 370, Dextromethorphan hydrobromide monohydrate] | 102 | 
O=C(OCCN1CCCCC1)c1c[nH]c2ccccc12 [Compound 371, SB 203186] | 84 | 
CN1C[C@H](C(=O)N[C@]2(C)O[C@@]3(O)[C@@H]4CCCN4C(=O)[C@H](Cc4ccccc4)N3C2=O)C[C@@H]2c3cccc4[nH]cc(c34)C[C@H]21 [Compound 372, Dihydroergotamine methanesulfonate] | 46 | 

same assay, conditions: 10 µM compound, 300 nM dopamine, 2 hr; hit = compound effect <20

Structure (SMILES) | Compound effect (percent receptor signaling in presence of test compound, relative lux units relative to the SCH23390 control) [%]
CN1CCN(c2nc3cc(C(F)(F)F)ccc3n3cccc23)CC1.O=C(O)/C=C\C(=O)O [Compound 330, CGS-12066A maleate] | 104
C[C@@](Cc1ccc(O)c(O)c1)(NN)C(=O)O [Compound 335, S-(-)-Carbidopa] | 112
CS(=O)(=O)O.Cn1cc(C(F)(F)F)nc1-c1ccc(OCC(O)CNCCOc2ccc(O)c(C(N)=O)c2)cc1 (stereo not drawn) [Compound 349, CGP 20712A methanesulfonate] | 92
N#Cc1cc2nc([O-])c([O-])nc2cc1[N+](=O)[O-].[Na+].[Na+] [Compound 351, CNQX disodium] | 91
COc1cccc(OC)c1OCCNCC1COc2ccccc2O1.Cl (stereo not drawn) [Compound 354, WB-4101 hydrochloride] | 101
OC[C@H]1O[C@@H](n2cnc3ccccc32)[C@H](O)[C@@H]1O [Compound 367, D-ribofuranosylbenzimidazole] | 24
